Experiments:
Type in all cases: in vivo
Botrytis cinerea = test: Test A: tomato botrytis, test suspension sprayed on tomato seedlings the day before inoculation; conditions: sprayed to run-off, inoculated following day, visual rating after 48 h at 20° C. + 3 days at 24° C., 100 = 100% disease control, 0 = no control, triplicate averaged
Experimental: (§1) General protocol for preparing test suspensions for Tests A-F: the test compounds were first dissolved in acetone in an amount equal to 3% of the final volume and then suspended at the desired concentration (in ppm) in acetone and purified water (50/50 mix) containing 250 ppm of the surfactant Trem® 014 (polyhydric alcohol esters). The resulting test suspensions were then used in Tests A-F. Each test was conducted in triplicate, and the results were averaged. Spraying a 200 ppm test suspension to the point of run-off on the test plants was the equivalent of a rate of 800 g/ha. The test suspension was sprayed to the point of run-off on tomato seedlings. The following day the seedlings were inoculated with a spore suspension of Botrytis cinerea (the causal agent of tomato botrytis) and incubated in saturated atmosphere at 20° C. for 48 h, and then moved to a growth chamber at 24° C. for 3 days, after which time visual disease ratings were made. Results for Tests A-F are given in Table A. In the Table, a rating of 100 indicates 100% disease control and a rating of 0 indicates no disease control (relative to the controls). A dash (-) indicates no test results.

Alternaria solani = test: Test B: tomato early blight, test suspension sprayed on tomato seedlings the day before inoculation; conditions: sprayed to run-off, inoculated following day, visual rating after 48 h at 27° C. + 5 days at 20° C., 100 = 100% disease control, triplicate averaged
Experimental: General protocol for preparing test suspensions for Tests A-F: the test compounds were first dissolved in acetone in an amount equal to 3% of the final volume and then suspended at the desired concentration (in ppm) in acetone and purified water (50/50 mix) containing 250 ppm of the surfactant Trem® 014 (polyhydric alcohol esters). The resulting test suspensions were then used in Tests A-F. Each test was conducted in triplicate, and the results were averaged. Spraying a 200 ppm test suspension to the point of run-off on the test plants was the equivalent of a rate of 800 g/ha. The test suspension was sprayed to the point of run-off on tomato seedlings. The following day the seedlings were inoculated with a spore suspension of Alternaria solani (the causal agent of tomato early blight) and incubated in a saturated atmosphere at 27° C. for 48 h, and then moved to a growth chamber at 20° C. for 5 days, after which time visual disease ratings were made. Results for Tests A-F are given in Table A. In the Table, a rating of 100 indicates 100% disease control and a rating of 0 indicates no disease control (relative to the controls). A dash (-) indicates no test results.

[1] = system: Puccinia recondita f. sp. tritici; test: Test E1: wheat leaf rust, wheat seedlings sprayed after inoculation; conditions: wheat seedlings inoculated, 24 h + 2 days at 20° C., then sprayed to run-off; visual rating 4 days later; 100 = 100% disease control; triplicate averaged
Experimental: as §1, with “g/ha. Wheat seedlings were inoculated with a spore suspension of Puccinia recondita f. sp. tritici (the causal agent of wheat leaf rust) and incubated in a saturated atmosphere at 20° C. for 24 h, and then moved to a growth chamber at 20° C. for 2 days. At the end of this time the” for “g/ha. The”, “on the wheat seedlings, and then” for “on tomato seedlings. The following day”, “were” for “were inoculated with a spore suspension of Botrytis cinerea (the causal agent of tomato botrytis) and incubated in saturated atmosphere at 20° C. for 48 h, and then”, “at 20°” for “at 24°”, “for 4” for “for 3”

Septoria tritici = test: Test D: wheat leaf blotch, test suspension sprayed on wheat seedlings the day before inoculation; conditions: sprayed to run-off, inoculated following day, visual rating after 48 h at 24° C. + 19 days at 20° C., 100 = 100% disease control, triplicate averaged
Experimental: (§2) General protocol for preparing test suspensions for Tests A-F: the test compounds were first dissolved in acetone in an amount equal to 3% of the final volume and then suspended at the desired concentration (in ppm) in acetone and purified water (50/50 mix) containing 250 ppm of the surfactant Trem® 014 (polyhydric alcohol esters). The resulting test suspensions were then used in Tests A-F. Each test was conducted in triplicate, and the results were averaged. Spraying a 200 ppm test suspension to the point of run-off on the test plants was the equivalent of a rate of 800 g/ha. The test suspension was sprayed to the point of run-off on wheat seedlings. The following day the seedlings were inoculated with a spore suspension of Septoria tritici (the causal agent of wheat leaf blotch) and incubated in saturated atmosphere at 24° C. for 48 h, and then the seedlings were moved to a growth chamber at 20° C. for 19 additional days, after which time visual disease ratings were made. Results for Tests A-F are given in Table A. In the Table, a rating of 100 indicates 100% disease control and a rating of 0 indicates no disease control (relative to the controls). A dash (-) indicates no test results.

Septoria nodorum = test: Test C: wheat glume blotch, test suspension sprayed on wheat seedlings the day before inoculation; conditions: sprayed to run-off, inoculated following day, visual rating after 48 h at 24° C. + 9 days at 20° C., 100 = 100% disease control, triplicate averaged
Experimental: as §2, with “of Septoria nodorum (the causal” for “of Septoria tritici (the causal”, “of wheat glume blotch) and” for “of wheat leaf blotch) and”, “incubated in a saturated atmosphere” for “incubated in saturated atmosphere”, “and then moved to” for “and then the seedlings were moved to”, “C. for 9 days, after” for “C. for 19 additional days, after”

[2] = system: Puccinia recondita f. sp. tritici; test: Test E2: wheat leaf rust, test suspension sprayed on wheat seedlings the day before inoculation; conditions: sprayed to run-off, inoculated following day, visual rating after 24 h + 6 days at 20° C., 100 = 100% disease control, triplicate averaged
Experimental: (§3) General protocol for preparing test suspensions for Tests A-F: the test compounds were first dissolved in acetone in an amount equal to 3% of the final volume and then suspended at the desired concentration (in ppm) in acetone and purified water (50/50 mix) containing 250 ppm of the surfactant Trem® 014 (polyhydric alcohol esters). The resulting test suspensions were then used in Tests A-F. Each test was conducted in triplicate, and the results were averaged. Spraying a 200 ppm test suspension to the point of run-off on the test plants was the equivalent of a rate of 800 g/ha. The test suspension was sprayed to the point of run-off on wheat seedlings. The following day the seedlings were inoculated with a spore suspension of Puccinia recondita f. sp. tritici (the causal agent of wheat leaf rust) and incubated in a saturated atmosphere at 20° C. for 24 h, and then moved to a growth chamber at 20° C. for 6 days, after which time visual disease ratings were made. Results for Tests A-F are given in Table A. In the Table, a rating of 100 indicates 100% disease control and a rating of 0 indicates no disease control (relative to the controls). A dash (-) indicates no test results.

[3] = system: Blumeria graminis f. sp. tritici; test: Test F: wheat powdery mildew, test suspension sprayed on wheat seedlings the day before inoculation; conditions: sprayed to run-off, inoculated with spore dust following day, visual rating after 8 days at 20° C., 100 = 100% disease control, triplicate averaged
Experimental: as §3, with “spore dust” for “spore suspension”, “of Blumeria graminis” for “of Puccinia recondita”, “tritici (also known as Erysiphe graminis f. sp. tritici, the” for “tritici (the”, “wheat powdery mildew)” for “wheat leaf rust)”, “in” for “in a saturated atmosphere at 20° C. for 24 h, and then moved to”, “for 8” for “for 6”

Compound: Cc1nn(C)c(C(F)c2ccc(F)cc2F)c1-c1ccc(F)cc1Cl (centres unmarked) [Compound 1, 4-(2-Chloro-4-fluorophenyl)-5-[(2,4-difluorophenyl)fluoromethyl]-1,3-dimethyl-1H-pyrazole]
- Test A disease control rating (Botrytis cinerea): 100%
- Test B disease control rating (Alternaria solani): 83%
- Test E1 disease control rating [1]: 40%
- Test D disease control rating (Septoria tritici): 98%
- Test C disease control rating (Septoria nodorum): 0%
- Test E2 disease control rating [2]: 99%
- Test F disease control rating [3]: 69%

Compound: Cc1nn(C)c(C(Cl)c2ccc(F)cc2F)c1-c1ccc(F)cc1Cl (centres unmarked) [Compound 2, 5-[Chloro(2,4-difluorophenyl)methyl]-4-(2-chloro-4-fluorophenyl)-1,3-dimethyl-1H-pyrazole]
- Test A disease control rating (Botrytis cinerea): 99%
- Test B disease control rating (Alternaria solani): 0%
- Test E1 disease control rating [1]: 0%
- Test D disease control rating (Septoria tritici): 100%
- Test C disease control rating (Septoria nodorum): 0%
- Test E2 disease control rating [2]: 94%
- Test F disease control rating [3]: 0%

Compound: COc1cc(F)c(C(F)c2c(-c3c(F)cccc3F)c(C)nn2C)c(F)c1 (centres unmarked) [Compound 3]
- Test A disease control rating (Botrytis cinerea): 100%
- Test B disease control rating (Alternaria solani): 46%
- Test E1 disease control rating [1]: 98%
- Test D disease control rating (Septoria tritici): 100%
- Test C disease control rating (Septoria nodorum): 0%
- Test E2 disease control rating [2]: 100%
- Test F disease control rating [3]: 99%

Compound: Cc1nn(C)c(C(F)c2ccc(F)cc2F)c1-c1c(F)cccc1F (centres unmarked) [Compound 4]
- Test A disease control rating (Botrytis cinerea): 99%
- Test B disease control rating (Alternaria solani): 98%
- Test E1 disease control rating [1]: 66%
- Test D disease control rating (Septoria tritici): 52%
- Test C disease control rating (Septoria nodorum): 0%
- Test E2 disease control rating [2]: 18%
- Test F disease control rating [3]: 0%

Compound: Cc1nn(C)c(C(Cl)c2ccc(F)cc2F)c1-c1c(F)cccc1F (centres unmarked) [Compound 5]
- Test A disease control rating (Botrytis cinerea): 100%
- Test B disease control rating (Alternaria solani): 100%
- Test E1 disease control rating [1]: 9%
- Test D disease control rating (Septoria tritici): 100%
- Test C disease control rating (Septoria nodorum): 89%
- Test E2 disease control rating [2]: 100%
- Test F disease control rating [3]: 100%

Compound: Cc1nn(C)c(C(F)c2ccc(F)cc2Cl)c1-c1c(F)cccc1Cl (centres unmarked) [Compound 6]
- Test D disease control rating (Septoria tritici): 96%
- Test E2 disease control rating [2]: 98%
- Test F disease control rating [3]: 87%

Compound: Cc1nn(C)c(C(Cl)c2ccc(F)cc2Cl)c1-c1c(F)cccc1Cl (centres unmarked) [Compound 7]
- Test D disease control rating (Septoria tritici): 100%
- Test E2 disease control rating [2]: 100%
- Test F disease control rating [3]: 100%

Reference: patent US20130123323A1, “FUNGICIDAL PYRAZOLES” (E I DU PONT DE NEMOURS AND COMPANY, priority 2010, published 2013)
